These are literature values, as cited in patent publication US10010648B2, “Transdermal delivery system” (Edixomed Limited, priority 2013, dated 2018).

The conditions of series [1]: healthy 70 kg-adult.

With `CCN(CC)CC(=O)Nc1c(C)cccc1C` [lidocaine], the “generally accepted safe dosage for topical anaesthesia” value (from here on “generally accepted safe dosage”) in series [1] is recorded as 750 mg. As usually defined, the pKa is the negative logarithm of the acid dissociation constant. As to `C=CC(=O)O` [acrylic acid], the pKa is recorded as 4.3 to 4.4. Turning to `COC(=O)[C@H]1[C@@H](OC(=O)c2ccccc2)C[C@@H]2CC[C@H]1N2C` [cocaine], in series [1], the “generally accepted safe dosage” value is given as 200 mg. On to `CCCCNc1ccc(C(=O)OCCN(C)C)cc1` [tetracaine], for which the “generally accepted safe dosage” value in series [1] was 50 mg.
